Measured values as given in patent publication EP0728482A2, “Use of hcp specific compounds to enhance erythropoiesis” (SMITHKLINE BEECHAM CORPORATION, priority 1995, dated 1996).

What was measured:
human p85 SH2 domain = target: T1, human p85 SH2 domain (Homo sapiens, UniProt P27986); assay: ELISA-based SH2 domain / pY peptide binding assay, p85 SH2 domain
T1 construct: made in house; host or cells: E. coli (pGEX-3X)
Experimental: (§1) The inhibitory activity of compounds at the different human SH2 domains was determined in vitro using SH2 domains expressed as fusion proteins in E. coli. The SH2 domains used herein were the human forms of the src SH2 domain, Grb2 SH2 domain, lck SH2 domain, fyn SH2 domain, SH-PTP2 SH2 domain, p85 SH2 domain and hcp SH2 domain.
(§2) Fusion proteins having the structure GST-X-SH2 were prepared as described in the GST gene fusion kit system available from Pharmacia (New Jersey). GST is the tagging sequence glutathione s-transferase epitope (SEQ ID NO: 8) for fyn, Grb2 and SH-PTP2 and is the tagging sequence glutathione s-transferase epitope (SEQ ID NO: 9) for p85. SH2 refers to the SH2 domains of fyn, Grb2, p85 and SH-PTP2 which were expressed and purified using glutathione Sepharose 4B (Pharmacia) according to "Current Protocols in Molecular Biology", ed. FM Ausubel et al., pub. John Wiley and Sons, Inc., (1995), p 16.7.1. X is an appropriate linker, preferably of 6 to 21 base pairs, used to keep the SH2 construct in frame and complement cloning. As such, the sequence of X is not critical. One skilled in the art can readily construct the appropriate linker. The DNA sequence encoding each GST-X-SH2 fusion protein was designed such that the indicated restriction sites (BamH1 and EcoRI) flank the SH2 region. […]

human fyn SH2 domain = target: T2, human fyn SH2 domain (Homo sapiens, UniProt P06241); assay: ELISA-based SH2 domain / pY peptide binding assay, fyn SH2 domain
T2 construct: made in house; host or cells: E. coli (pGEX-2T)
T2 sequence (P06241 143-252): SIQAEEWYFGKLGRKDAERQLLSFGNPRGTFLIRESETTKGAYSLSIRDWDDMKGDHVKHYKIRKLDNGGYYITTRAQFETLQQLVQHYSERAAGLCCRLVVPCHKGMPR
Experimental: as §1, §2

[1] = Ki calculated from IC50 with the expanded equation
[2] = inhibition of binding of 0.1 uM biotinylated pY peptide to SH2 domain fusion protein

T1 sequence (P27986 321-440): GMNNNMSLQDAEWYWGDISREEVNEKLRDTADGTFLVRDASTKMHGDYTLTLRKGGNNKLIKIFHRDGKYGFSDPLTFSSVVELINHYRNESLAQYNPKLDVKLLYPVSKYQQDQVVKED

Ki (human p85 SH2 domain; [1]): > 1000 µM
IC50 (human p85 SH2 domain; [2]): > 300 µM
Ki (human fyn SH2 domain; [1]): > 1000 µM
IC50 (human fyn SH2 domain; [2]): > 300 µM
Compound: CCCCCCNC(=O)[C@H]1CC[C@H](CNC(=O)c2ccc(C(=O)c3ccc(C(=O)O)cc3)cc2)CC1 [Compound 6, 4-carboxy-benzophenone-4-carboxamido-trans-4-methyl-cyclohexyl-N-hexyl carboxamide]
